Laboratory results: paper PMC10165273, “Itch receptor MRGPRX4 interacts with the receptor activity–modifying proteins” (The Journal of Biological Chemistry, 2023)
Values joined by “and” are separate entries in the source; they are usually repeats but may differ in a detail not shown here. Equal entries are not always repeated.

Legend:
Format in all cases: cell-based
MRGPRX4 + RAMP2 = target: T1, MRGPRX4 + RAMP2 (Homo sapiens, UniProt Q96LA9); assay: IP1 accumulation, MRGPRX4 coexpressed with RAMP2; details: for IP1 accumulation (normalized): MRGPRX4+RAMP2 1pg 1:1, Supplementary Figure 5e, 5g
T1 construct: expressed in transfected cells; host or cells: HEK293T
Procedure: HEK293T cells were transfected with 1 pg/cell of MRGPRX4 DNA, and the amount of DNA was kept constant at 2 pg/cell with pcDNA3.1(+) empty vector, unless otherwise specified. Twenty four hours after transfection, IP1 assay was performed as previously described ([51]). When applicable, cells were treated with 1 μM YM254890 (YM) or different concentrations of U73122 for 1 h prior to addition of agonist or buffer. After incubation for 2 h, HTRF reagents and IP1 calibration standards were added and incubated for 2 h in the dark at room temperature. Time-resolved fluorescence signals were read on the BioTek Synergy NEO-TRF Hybrid multi-mode reader (BioTek Instruments). All data were carried out in three independent experiments with three technical replicate each.
For RAMP DNA titration assay, HEK293T cells were cotransfected with a constant amount of 1 pg/cell of FLAG-MRGPRX4-GFP10-1D4 to which a serial dilution of 1, 0.75, 0.5, 0.25, or 0 pg/cell of each HA-RAMP-OLLAS was added. For a homogenous transfection of MRGPRX4, a master mix of MRGPRX4 DNA was made prior to addition of the RAMP DNA. […]
Data reduction, standard calibration, and transformation of HTRF data were performed as previously described ([51]). Normalized IP1 values were calculated relative to the unstimulated mock-transfected cells (set to 0%) and fully stimulated MRGPRX4 (alone if applicable) (set to 100%).

MRGPRX4 [1] = target: T2, MRGPRX4 (Homo sapiens, UniProt Q96LA9); assay: BRET2 β-arrestin1 recruitment to MRGPRX4; details: for net BRET2 ratio, βArr1 recruitment: Fig 5a, 100µM ligand, replicate values, listed as Ng
T2 construct: expressed in transfected cells; host or cells: HEK293T
Procedure: (§1) The method for homogenous transfection of β-Arrestin and BRET^2 assay of β-Arrestin recruitment has been described previously ([51]). […] BRET^2 measurements were taken on the BioTek Synergy NEO2 microplate reader.
(§2) For MRGPRX4 DNA titration assays, HEK293T cells were cotransfected with either β-Arrestin1 or β-Arrestin2 with increasing amounts of MRGPRX4 (0.5, 1, or 2 pg/cell).
(§3) The BRET ratio for each sample was determined by calculating the ratio of the light intensity emitted by the GFP10 (515 nm) (acceptor) over the light intensity emitted by the RLuc3 (395 nm) (donor). Net BRET^2 was determined by subtracting the basal BRET^2 (β-arrestin-RLuc3 only) signal from the BRET^2 signals. All BRET values were normalized to the MRGPRX4-only condition.

MRGPRX4 [2] = target: T2, MRGPRX4; assay: BRET2 β-arrestin2 recruitment to MRGPRX4; details: for net BRET2 ratio, βArr2 recruitment: Fig 5b, 100µM ligand, replicate values; for net BRET2 ratio, βArr2 recruitment / BRET2 ratio: listed as Ng; for BRET2 ratio: Fig 5c, MRGPRX4, 100μM ligand
Text: as §1, §2
To measure the time-course of β-Arrestin2 recruitment to MRGPRX4 and CALCRL, the transfection and general procedure described above was followed, with the modification that Prolume Purple was added first, followed by addition of the appropriate agonists ([51]).
as §3

T2 sequence (Q96LA9 whole entry): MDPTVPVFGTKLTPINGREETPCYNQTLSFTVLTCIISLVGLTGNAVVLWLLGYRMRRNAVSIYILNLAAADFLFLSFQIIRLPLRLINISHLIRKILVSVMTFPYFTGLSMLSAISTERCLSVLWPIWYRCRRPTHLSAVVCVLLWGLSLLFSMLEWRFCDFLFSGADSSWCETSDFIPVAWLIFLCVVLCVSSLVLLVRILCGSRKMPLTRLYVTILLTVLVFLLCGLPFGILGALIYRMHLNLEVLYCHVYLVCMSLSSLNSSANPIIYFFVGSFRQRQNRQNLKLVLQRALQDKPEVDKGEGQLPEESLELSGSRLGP
T1 sequence (Q96LA9 whole entry): as above

SMILES: CC(C)[C@H]1CC[C@H](C(=O)N[C@H](Cc2ccccc2)C(=O)O)CC1 [Nateglinide]
- IP1 span (Emax minus basal) (MRGPRX4 + RAMP2; Tet-On MRGPRX4:RAMP2 Ratio 1:1 (Fig. S5E)): 52.2%
- EC50 (MRGPRX4 + RAMP2; Tet-On MRGPRX4:RAMP2 Ratio 1:1 (Fig. S5E), read-out: IP1 EC50): 16.7 µM
- Emax (MRGPRX4 + RAMP2; Tet-On MRGPRX4:RAMP2 Ratio 1:1 (Fig. S5E), read-out: IP1 Emax): 55.7%
- IP1 accumulation (normalized) (MRGPRX4 + RAMP2; log [nateglinide] (M) -4): 49.0479 and 42.2633 and 46.2108
- IP1 accumulation (normalized) (MRGPRX4 + RAMP2; log [nateglinide] (M) -4.69897): 35.8073 and 28.8485 and 29.8595
- IP1 accumulation (normalized) (MRGPRX4 + RAMP2; log [nateglinide] (M) -5.39794): 15.3369 and 12.9717 and 15.4367
- IP1 accumulation (normalized) (MRGPRX4 + RAMP2; log [nateglinide] (M) -6.09691): 5.582 and 4.886 and 4.986
- IP1 accumulation (normalized) (MRGPRX4 + RAMP2; log [nateglinide] (M) -6.79588): 3.625 and 3.074 and 3.358
- IP1 accumulation (normalized) (MRGPRX4 + RAMP2; log [nateglinide] (M) -7.49485): 3.035 and 3.588 and 4.695
- β-arrestin1 recruitment to MRGPRX4 (MRGPRX4 [1]; 100 μM agonist (Fig. 5A)): very low β-arrestin1 recruitment
- net BRET2 ratio, βArr1 recruitment (MRGPRX4 [1]; MRGPRX4 20ng, 0.5 pg DNA/cell): 0.001598 and 0.001911 and 0.001766 and 0.001511 and 0.001907 and 0.001761 and 0.001482 and 0.001441 and 0.001223 and 0.001859 and 0.001157 and 0.001231 and 0.00136 and 0.0008839 and 0.000388 and 0.001053 and 0.001203 and 0.000951 and 0.0007681 and 0.0005323 and 0.0008933 and 0.0008719 and 0.001239 and 0.001046 and 0.001091
- net BRET2 ratio, βArr1 recruitment (MRGPRX4 [1]; MRGPRX4 40ng, 1 pg DNA/cell): 0.001875 and 0.002517 and 0.002385 and 0.001913 and 0.002075 and 0.001709 and 0.001872 and 0.002414 and 0.002488 and 0.001826 and 0.002129 and 0.001258 and 0.0007412 and 0.002042 and 0.001771 and 0.001548 and 0.001966 and 0.0009568 and 0.001828 and 0.001183 and 0.001043 and 0.001073 and 0.0007023 and 0.00193 and 0.002589 and 0.001421 and 0.00209
- net BRET2 ratio, βArr1 recruitment (MRGPRX4 [1]; MRGPRX4 80ng, 2 pg DNA/cell): 0.002996 and 0.002474 and 0.002377 and 0.001821 and 0.003223 and 0.002725 and 0.001839 and 0.003232 and 0.002812 and 0.002723 and 0.003057 and 0.001936 and 0.00205 and 0.002139 and 0.001864 and 0.00174 and 0.001944 and 0.002317 and 0.002724
- net BRET2 ratio, βArr1 recruitment (MRGPRX4 [1]; βArr1 only, 0 pg MRGPRX4 DNA/cell): 0.0003439 and -7.335e-5 and -0.0002706 and -9.392e-5 and -0.0001296 and 0.0002236 and -2.118e-6 and -0.0001045 and 0.0001067 and 0.000324 and -0.0001421 and -0.0001819 and 0.0002245 and -0.0001005 and -0.000124 and -9.463e-5 and 0.0003743 and -0.0002797 and -0.0002549 and 6.253e-5 and 0.0001923 and 0.0001254 and -0.000481 and 0.0003557 and 0.0001817 and -2.148e-5 and -0.0001602
- β-arrestin2 recruitment to MRGPRX4 (MRGPRX4 [2]; 100 μM agonist (Fig. 5B, C)): recruited β-arrestin2 more strongly than β-arrestin1
- net BRET2 ratio, βArr2 recruitment (MRGPRX4 [2]; MRGPRX4 20ng, 0.5 pg DNA/cell): 0.01059 and 0.011 and 0.01083 and 0.009137 and 0.01004 and 0.009779 and 0.007885 and 0.007959 and 0.007875 and 0.009405 and 0.008616 and 0.00928 and 0.007811 and 0.00797 and 0.009994 and 0.008653 and 0.00706 and 0.007614 and 0.007209 and 0.007504 and 0.007132 and 0.006566 and 0.006348 and 0.007157 and 0.004522 and 0.007759 and 0.005207
- net BRET2 ratio, βArr2 recruitment (MRGPRX4 [2]; MRGPRX4 40ng, 1 pg DNA/cell): 0.01411 and 0.01341 and 0.01314 and 0.01164 and 0.01153 and 0.01104 and 0.009585 and 0.009093 and 0.008671 and 0.0118 and 0.009621 and 0.01107 and 0.01117 and 0.01052 and 0.009545 and 0.01099 and 0.00914 and 0.009334 and 0.008409 and 0.01062 and 0.01019 and 0.008186 and 0.008003 and 0.007557 and 0.007525 and 0.005338 and 0.009291
- net BRET2 ratio, βArr2 recruitment (MRGPRX4 [2]; MRGPRX4 80ng, 2 pg DNA/cell): 0.01501 and 0.01563 and 0.01506 and 0.0134 and 0.0136 and 0.01318 and 0.01149 and 0.0115 and 0.01095 (2×) and 0.01387 and 0.01159 and 0.01257 and 0.01157 and 0.01276 and 0.01058 and 0.009957 and 0.009364 and 0.01169
- net BRET2 ratio, βArr2 recruitment (MRGPRX4 [2]; βArr2 only, 0 pg MRGPRX4 DNA/cell): 0.0002584 and -0.0001954 and -6.2982e-5 and -0.0001775 and 0.0006514 and -0.0004739 and -9.3811e-5 and 0.0004305 and -0.0003367 and -6.4621e-5 and -0.0005147 and 0.0005793 and -0.0001286 and 0.0001629 and -3.4338e-5 and 0.0006863 and -0.0005797 and -0.0001066 and -6.7124e-5 and 1.05e-5 and 5.6622e-5 and 0.0001307 and -0.0006572 and 0.0005265 and 0.0006391 and 0.0003062 and -0.0009453
- BRET2 ratio (MRGPRX4 [2]; 60 s): 0.01411 and 0.01234 and 0.0129
- BRET2 ratio (MRGPRX4 [2]; 120 s): 0.01624 and 0.01368 and 0.01342
- BRET2 ratio (MRGPRX4 [2]; 180 s): 0.01716 and 0.01419 and 0.01539
- BRET2 ratio (MRGPRX4 [2]; 240 s): 0.01732 and 0.01509 and 0.01494
- BRET2 ratio (MRGPRX4 [2]; 300 s): 0.01643 and 0.01468 and 0.01593
- BRET2 ratio (MRGPRX4 [2]; 360 s): 0.01701 and 0.01469 and 0.01434
- BRET2 ratio (MRGPRX4 [2]; 420 s): 0.01667 and 0.01531 and 0.01417
- BRET2 ratio (MRGPRX4 [2]; 480 s): 0.01658 and 0.0139 and 0.01409
- BRET2 ratio (MRGPRX4 [2]; 540 s): 0.01614 and 0.01397 and 0.01412
- BRET2 ratio (MRGPRX4 [2]; 600 s): 0.01601 and 0.01404 and 0.013
- BRET2 ratio (MRGPRX4 [2]; 660 s): 0.0171 and 0.01418 and 0.0126
- BRET2 ratio (MRGPRX4 [2]; 720 s): 0.01525 and 0.01442 and 0.01263
- BRET2 ratio (MRGPRX4 [2]; 780 s): 0.01511 and 0.01318 and 0.01349
- BRET2 ratio (MRGPRX4 [2]; 840 s): 0.01493 and 0.01394 and 0.01155
- BRET2 ratio (MRGPRX4 [2]; 900 s): 0.01482 and 0.01445 and 0.01282
- BRET2 ratio (MRGPRX4 [2]; 960 s): 0.01446 and 0.01322 and 0.01117
- BRET2 ratio (MRGPRX4 [2]; 1020 s): 0.01461 and 0.01265 and 0.01275
- BRET2 ratio (MRGPRX4 [2]; 1080 s): 0.01404 and 0.01402 and 0.01514
- BRET2 ratio (MRGPRX4 [2]; 1140 s): 0.01394 and 0.01316 and 0.01206
